According to US9051333B2, “6,7-dihydroimidazo [2,1-b] [1,3]oxazine bactericides” (OTSUKA PHARMACEUTICAL CO., LTD., priority 2011, dated 2015):
≈ marks a conversion by molar mass, not a printed value. Like-named read-outs stand apart in the source and are kept apart here.

How the values were obtained:
[1] = tested on: Mycobacterium tuberculosis (M. tuberculosis kurono); test: Antimicrobial Assay (Agar Plate Dilution Method), M. tuberculosis kurono; type: cell-based; conditions: 336 h, read-out: Minimum Inhibitory Concentration
[2] = tested on: Mycobacterium tuberculosis (M. tuberculosis H37Rv); test: Antimicrobial Assay (Agar Plate Dilution Method), M. tuberculosis H37Rv; type: cell-based; conditions: 336 h, 7H11 agar medium, cultured at 37° C. for 14 days, read-out: minimum inhibitory concentration
[3] = M. tuberculosis kurono, 7H11 agar medium, cultured at 37° C. for 14 days

Row | SMILES | MIC [1, 3] [µg/mL] | MIC [2] [µg/mL] | MIC [1] [µg/mL]
1 | O=[N+]([O-])c1cn2c(n1)O[C@@H](COc1ccc(N3CCC(Cc4ccc(Oc5ccc(OC(F)(F)F)cc5)cc4)CC3)cc1)CC2 [Example 228, (R)-2-nitro-7-(4-{4-[4-(4-trifluoromethoxyphenoxy)benzyl]piperidin-1-yl}phenoxymethyl)-6,7-dihydro-5H-imidazo[2,1-b][1,3]oxazine] | 0.0008 (≈ 0.00128 µM) | ≤ 0.0004 | –
2 | C[C@@H]1CN(c2ccc(OC[C@H]3CCn4cc([N+](=O)[O-])nc4O3)cc2)CCN1Cc1ccc(OCc2ccc(C(F)(F)F)cc2)cc1 [Example 299, (R)-7-(4-{(R)-3-methyl-4-[4-(4-trifluoromethylbenzyloxy)benzyl]piperazin-1-yl}phenoxymethyl)-2-nitro-6,7-dihydro-5H-imidazo[2,1-b][1,3]oxazine] | 0.0008 (≈ 0.00125 µM) | – | –
3 | O=[N+]([O-])c1cn2c(n1)OC(COc1ccc(N3CCC(Oc4ccc(OC(F)(F)F)cc4)CC3)cc1)CC2 (stereo not shown) [Example 1, 2-nitro-7-{4-[4-(4-trifluoromethoxyphenoxy)piperidin-1-yl]phenoxymethyl}-6,7-dihydro-5H-imidazo[2,1-b][1,3]oxazine] | 0.024 (≈ 0.0449 µM) | – | –
4 | O=[N+]([O-])c1cn2c(n1)OC(COc1ccc(C3CCN(Cc4ccc(OC(F)(F)F)cc4)CC3)cc1)CC2 (stereo not shown) [Example 364, 2-nitro-7-{4-[1-(4-trifluoromethoxybenzyl)piperidin-4-yl]phenoxymethyl}-6,7-dihydro-5H-imidazo[2,1-b][1,3]oxazine] | 0.024 (≈ 0.0451 µM) | – | –
5 | CC1(COc2ccc(N3CCC(CCc4ccc(OC(F)(F)F)cc4)CC3)cc2)CCn2cc([N+](=O)[O-])nc2O1 (stereo not shown) [Example 382, 7-methyl-2-nitro-7-(4-{4-[2-(4-trifluoromethoxyphenyl)ethyl]piperidin-1-yl}phenoxymethyl)-6,7-dihydro-5H-imidazo[2,1-b][1,3]oxazine] | 0.012 (≈ 0.0214 µM) | – | –
6 | O=[N+]([O-])c1cn2c(n1)O[C@@H](COc1ccc(N3CCN(S(=O)(=O)C(F)(F)C(F)(F)C(F)(F)C(F)(F)F)CC3)cc1)CC2 [Example 380, (R)-2-nitro-7-{4-[4-(nonafluorobutane-1-sulfonyl)piperazin-1-yl]phenoxymethyl}-6,7-dihydro-5H-imidazo[2,1-b][1,3]oxazine] | – | – | 0.012 (≈ 0.0187 µM)
